Laboratory results as given in BindingDB's records for doi:10.1021/jm0102203 (Glaxosmithkline, 2001).

Test: Ability to inhibit Human cytomegalovirus (HCMV) protease activity
Compound `C[C@@H]1C(=O)N(c2ccc([N+](=O)[O-])cc2[N+](=O)[O-])[C@H]2CCN(C(=O)OCc3ccccc3)C12` (stereo partly drawn) [4-(2,4-Dinitro-phenyl)-6-methyl-5-oxo-hexahydro-pyrrolo[3,2-b]pyrrole-1-carboxylic acid benzyl ester] has an IC50 of 500 µM.
In the case of `CC(=O)C=CN1C(=O)[C@@H](C)C2[C@@H]1CCN2C(=O)OCc1ccccc1` (stereo partly drawn) [6-Methyl-5-oxo-4-(3-oxo-but-1-enyl)-hexahydro-pyrrolo[3,2-b]pyrrole-1-carboxylic acid benzyl ester], the IC50 is reported as > 500 µM.
`C[C@@H]1C(=O)N(C(=O)n2cccc2)[C@H]2CCN(C(=O)OCc3ccccc3)C12` (stereo partly drawn) [6-Methyl-5-oxo-4-(pyrrole-1-carbonyl)-hexahydro-pyrrolo[3,2-b]pyrrole-1-carboxylic acid benzyl ester] showed an IC50 of 250 µM.
